According to PubChem BioAssay (NCI):
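96-well plates; 48 h exposure; 5 concentrations. Endpoints by linear interpolation between flanking doses. Not reached: highest tested concentration assigned. Here, GI50 denotes the concentration required for 50% inhibition of growth. TGI is the concentration that stops growth completely.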

Legend:
Test in all cases: NCI tumour cell line growth inhibition, 48 h
SNB-19 CNS = test system: SNB-19 CNS
NCI-H226 lung = test system: NCI-H226 lung
IGROV1 ovarian = test system: IGROV1 ovarian
RXF 393 renal = test system: RXF 393 renal
UACC-62 melanoma = test system: UACC-62 melanoma
NCI-H23 lung = test system: NCI-H23 lung
SK-MEL-2 melanoma = test system: SK-MEL-2 melanoma
A498 renal = test system: A498 renal
DU-145 prostate = test system: DU-145 prostate
SK-MEL-5 melanoma = test system: SK-MEL-5 melanoma
ACHN renal = test system: ACHN renal
SF-295 CNS = test system: SF-295 CNS
HL-60(TB) leukemia = test system: HL-60(TB) leukemia
HT29 colon = test system: HT29 colon
SNB-75 CNS = test system: SNB-75 CNS
SW-620 colon = test system: SW-620 colon
T-47D breast = test system: T-47D breast
K-562 leukemia = test system: K-562 leukemia
OVCAR-5 ovarian = test system: OVCAR-5 ovarian
MDA-MB-231 breast = test system: MDA-MB-231 breast
U251 CNS = test system: U251 CNS
NCI-H522 lung = test system: NCI-H522 lung
OVCAR-8 ovarian = test system: OVCAR-8 ovarian
CAKI-1 renal = test system: CAKI-1 renal
SF-268 CNS = test system: SF-268 CNS
NCI-H460 lung = test system: NCI-H460 lung
SK-MEL-28 melanoma = test system: SK-MEL-28 melanoma
SF-539 CNS = test system: SF-539 CNS
OVCAR-4 ovarian = test system: OVCAR-4 ovarian
KM12 colon = test system: KM12 colon
TK-10 renal = test system: TK-10 renal
UO-31 renal = test system: UO-31 renal
BT-549 breast = test system: BT-549 breast
COLO 205 colon = test system: COLO 205 colon
SK-OV-3 ovarian = test system: SK-OV-3 ovarian
HCC-2998 colon = test system: HCC-2998 colon
MCF7 breast = test system: MCF7 breast
SN12C renal = test system: SN12C renal
A549 NSCLC = test system: A549 NSCLC
OVCAR-3 ovarian = test system: OVCAR-3 ovarian
HOP-62 NSCLC = test system: HOP-62 NSCLC
EKVX NSCLC = test system: EKVX NSCLC
MDA-MB-468 breast = test system: MDA-MB-468 breast
UACC-257 melanoma = test system: UACC-257 melanoma
HOP-92 NSCLC = test system: HOP-92 NSCLC
SR leukemia = test system: SR leukemia
CCRF-CEM leukemia = test system: CCRF-CEM leukemia
M14 melanoma = test system: M14 melanoma
786-0 renal = test system: 786-0 renal
RPMI-8226 leukemia = test system: RPMI-8226 leukemia
HS 578T breast = test system: HS 578T breast
MDA-MB-435 = test system: MDA-MB-435
HCT-116 colon = test system: HCT-116 colon
MALME-3M melanoma = test system: MALME-3M melanoma
HCT-15 colon = test system: HCT-15 colon
PC-3 prostate = test system: PC-3 prostate
MOLT-4 leukemia = test system: MOLT-4 leukemia
LOX IMVI melanoma = test system: LOX IMVI melanoma

Question: For `COc1cccc(NC(=O)c2ccc(NC(=O)CCl)s2)c1`, which GI50 (SNB-19 CNS) is on record?
Answer: 21.8 µM

Question: And the TGI (SNB-19 CNS)?
Answer: 65.8 µM

Question: And the GI50 (NCI-H226 lung)?
Answer: 15.8 µM

Question: And the TGI (NCI-H226 lung)?
Answer: 39.2 µM

Question: And the GI50 (IGROV1 ovarian)?
Answer: 16.8 µM

Question: And the TGI (IGROV1 ovarian)?
Answer: 35.5 µM

Question: What about the GI50 (RXF 393 renal) of the same molecule?
Answer: 13.6 µM

Question: And the TGI (RXF 393 renal)?
Answer: 36.9 µM

Question: What about the GI50 (UACC-62 melanoma) of the same molecule?
Answer: 15.3 µM

Question: What about the TGI (UACC-62 melanoma) of the same molecule?
Answer: 29.2 µM

Question: And the GI50 (NCI-H23 lung)?
Answer: 17.2 µM

Question: And the TGI (NCI-H23 lung)?
Answer: 35.5 µM

Question: What about the GI50 (SK-MEL-2 melanoma) of the same molecule?
Answer: 28.6 µM

Question: And the TGI (SK-MEL-2 melanoma)?
Answer: > 100 µM

Question: What about the GI50 (A498 renal) of the same molecule?
Answer: > 100 µM

Question: And the TGI (A498 renal)?
Answer: > 100 µM

Question: And the GI50 (DU-145 prostate)?
Answer: 36.4 µM

Question: What about the TGI (DU-145 prostate) of the same molecule?
Answer: > 100 µM

Question: What about the GI50 (SK-MEL-5 melanoma) of the same molecule?
Answer: 17.4 µM

Question: And the TGI (SK-MEL-5 melanoma)?
Answer: 34.6 µM

Question: And the GI50 (ACHN renal)?
Answer: 17.4 µM

Question: And the TGI (ACHN renal)?
Answer: 35.9 µM

Question: What about the GI50 (SF-295 CNS) of the same molecule?
Answer: 46.6 µM

Question: What about the TGI (SF-295 CNS) of the same molecule?
Answer: > 100 µM

Question: What about the GI50 (HL-60(TB) leukemia) of the same molecule?
Answer: 17.4 µM

Question: What about the TGI (HL-60(TB) leukemia) of the same molecule?
Answer: 99 µM

Question: And the GI50 (HT29 colon)?
Answer: 20.3 µM

Question: What about the TGI (HT29 colon) of the same molecule?
Answer: 44.2 µM

Question: And the GI50 (SNB-75 CNS)?
Answer: 11.7 µM

Question: And the TGI (SNB-75 CNS)?
Answer: > 100 µM

Question: And the GI50 (SW-620 colon)?
Answer: 13.4 µM

Question: What about the TGI (SW-620 colon) of the same molecule?
Answer: 30.5 µM

Question: And the GI50 (T-47D breast)?
Answer: 34.5 µM

Question: What about the TGI (T-47D breast) of the same molecule?
Answer: > 100 µM

Question: And the GI50 (K-562 leukemia)?
Answer: 16.4 µM

Question: And the TGI (K-562 leukemia)?
Answer: > 100 µM

Question: What about the GI50 (OVCAR-5 ovarian) of the same molecule?
Answer: 21 µM

Question: What about the TGI (OVCAR-5 ovarian) of the same molecule?
Answer: 46.8 µM

Question: What about the GI50 (MDA-MB-231 breast) of the same molecule?
Answer: 15.6 µM

Question: What about the TGI (MDA-MB-231 breast) of the same molecule?
Answer: 32.6 µM

Question: And the GI50 (U251 CNS)?
Answer: 16.8 µM

Question: And the TGI (U251 CNS)?
Answer: 31.5 µM

Question: And the GI50 (NCI-H522 lung)?
Answer: 13.9 µM

Question: And the TGI (NCI-H522 lung)?
Answer: 30.8 µM

Question: What about the GI50 (OVCAR-8 ovarian) of the same molecule?
Answer: 18.5 µM

Question: And the TGI (OVCAR-8 ovarian)?
Answer: 39.3 µM

Question: What about the GI50 (CAKI-1 renal) of the same molecule?
Answer: 16.1 µM

Question: What about the TGI (CAKI-1 renal) of the same molecule?
Answer: 42 µM

Question: What about the GI50 (SF-268 CNS) of the same molecule?
Answer: 25 µM

Question: What about the TGI (SF-268 CNS) of the same molecule?
Answer: > 100 µM

Question: What about the GI50 (NCI-H460 lung) of the same molecule?
Answer: 20.8 µM

Question: And the TGI (NCI-H460 lung)?
Answer: 45.2 µM

Question: What about the GI50 (SK-MEL-28 melanoma) of the same molecule?
Answer: 20.6 µM

Question: And the TGI (SK-MEL-28 melanoma)?
Answer: 52.6 µM

Question: And the GI50 (SF-539 CNS)?
Answer: 16.7 µM

Question: What about the TGI (SF-539 CNS) of the same molecule?
Answer: 31 µM

Question: What about the GI50 (OVCAR-4 ovarian) of the same molecule?
Answer: 39.2 µM

Question: And the TGI (OVCAR-4 ovarian)?
Answer: > 100 µM

Question: And the GI50 (KM12 colon)?
Answer: 21.2 µM

Question: And the TGI (KM12 colon)?
Answer: 54.1 µM

Question: And the GI50 (TK-10 renal)?
Answer: > 100 µM

Question: What about the TGI (TK-10 renal) of the same molecule?
Answer: > 100 µM

Question: What about the GI50 (UO-31 renal) of the same molecule?
Answer: 13.7 µM

Question: And the TGI (UO-31 renal)?
Answer: 27.6 µM

Question: And the GI50 (BT-549 breast)?
Answer: 12.2 µM

Question: And the TGI (BT-549 breast)?
Answer: 29.1 µM

Question: What about the GI50 (COLO 205 colon) of the same molecule?
Answer: 27.9 µM

Question: And the TGI (COLO 205 colon)?
Answer: 70.8 µM

Question: What about the GI50 (SK-OV-3 ovarian) of the same molecule?
Answer: 27 µM

Question: And the TGI (SK-OV-3 ovarian)?
Answer: 66.5 µM

Question: And the GI50 (HCC-2998 colon)?
Answer: 47.8 µM

Question: And the TGI (HCC-2998 colon)?
Answer: > 100 µM

Question: And the GI50 (MCF7 breast)?
Answer: 20.1 µM

Question: And the TGI (MCF7 breast)?
Answer: 66.4 µM

Question: And the GI50 (SN12C renal)?
Answer: 16.1 µM

Question: And the TGI (SN12C renal)?
Answer: 33.2 µM

Question: What about the GI50 (A549 NSCLC) of the same molecule?
Answer: 21.7 µM

Question: And the TGI (A549 NSCLC)?
Answer: 53.9 µM

Question: And the GI50 (OVCAR-3 ovarian)?
Answer: 16.7 µM

Question: What about the TGI (OVCAR-3 ovarian) of the same molecule?
Answer: 33.8 µM

Question: And the GI50 (HOP-62 NSCLC)?
Answer: 56.7 µM

Question: What about the TGI (HOP-62 NSCLC) of the same molecule?
Answer: > 100 µM

Question: What about the GI50 (EKVX NSCLC) of the same molecule?
Answer: 26.4 µM

Question: What about the TGI (EKVX NSCLC) of the same molecule?
Answer: > 100 µM

Question: What about the GI50 (MDA-MB-468 breast) of the same molecule?
Answer: 14.2 µM

Question: What about the TGI (MDA-MB-468 breast) of the same molecule?
Answer: 30.6 µM

Question: What about the GI50 (UACC-257 melanoma) of the same molecule?
Answer: 55.3 µM

Question: What about the TGI (UACC-257 melanoma) of the same molecule?
Answer: > 100 µM

Question: What about the GI50 (HOP-92 NSCLC) of the same molecule?
Answer: 15.4 µM

Question: What about the TGI (HOP-92 NSCLC) of the same molecule?
Answer: 34.7 µM

Question: And the GI50 (SR leukemia)?
Answer: 4.92 µM

Question: What about the TGI (SR leukemia) of the same molecule?
Answer: 56.2 µM

Question: What about the GI50 (CCRF-CEM leukemia) of the same molecule?
Answer: 6.87 µM

Question: And the TGI (CCRF-CEM leukemia)?
Answer: 51.2 µM

Question: What about the GI50 (M14 melanoma) of the same molecule?
Answer: 16.3 µM

Question: What about the TGI (M14 melanoma) of the same molecule?
Answer: 39.4 µM

Question: What about the GI50 (786-0 renal) of the same molecule?
Answer: 17.1 µM

Question: And the TGI (786-0 renal)?
Answer: 33 µM

Question: And the GI50 (RPMI-8226 leukemia)?
Answer: 18.7 µM

Question: And the TGI (RPMI-8226 leukemia)?
Answer: 46.8 µM

Question: And the GI50 (HS 578T breast)?
Answer: 20.3 µM

Question: What about the TGI (HS 578T breast) of the same molecule?
Answer: 61.1 µM

Question: What about the GI50 (MDA-MB-435) of the same molecule?
Answer: 18.6 µM

Question: And the TGI (MDA-MB-435)?
Answer: 60.9 µM

Question: And the GI50 (HCT-116 colon)?
Answer: 22.4 µM

Question: What about the TGI (HCT-116 colon) of the same molecule?
Answer: 88.9 µM

Question: And the GI50 (MALME-3M melanoma)?
Answer: 12.5 µM

Question: And the TGI (MALME-3M melanoma)?
Answer: 28.5 µM

Question: And the GI50 (HCT-15 colon)?
Answer: 11.3 µM

Question: And the TGI (HCT-15 colon)?
Answer: 40.5 µM

Question: What about the GI50 (PC-3 prostate) of the same molecule?
Answer: 14.9 µM

Question: What about the TGI (PC-3 prostate) of the same molecule?
Answer: 34.9 µM

Question: And the GI50 (MOLT-4 leukemia)?
Answer: 12.5 µM

Question: And the TGI (MOLT-4 leukemia)?
Answer: 55.8 µM

Question: And the GI50 (LOX IMVI melanoma)?
Answer: 11.4 µM

Question: What about the TGI (LOX IMVI melanoma) of the same molecule?
Answer: 25.1 µM
